# Reference: patent publication US9719981B2, “RAC1 inhibitors for the treatment of alport glomerular disease” (Father Flanagan's Boys' Home, priority 2012, dated 2017)
# Experiments:
# [1] = tested on: cultured wild type mesangial cells; experiment: LPS-induced actin cytoskeletal rearrangement (phalloidin staining); format: cell-based, mouse; details: 10 ng/ml LPS; 10 μM Rac-1 inhibitor or 1 μM CDC42 inhibitor; blinded
# Procedure: Activation of mesangial cell cultures by treatment with LPS. Sub-confluent mesangial cells were tryspinized; plated at low density on Rat tail type 1 collagen (BD Biosciences) coated cytology slides (VWR) and incubated overnight in 1% FCS-containing media. One hour after the addition of serum-free media, 1 μM CDC42 Inhibitor (KSC-23-233) and 10 μM Rac-1 Inhibitor, NSC-23766 (Tocris) were added to individual slides and allowed to incubate for an additional hour. 10 ng/ml Lipopolysaccharides (Sigma-Aldrich) was added to cells, incubated 1 hour, fixed in ice cold acetone for 5 minutes and allowed to air dry ˜2 hours. Cells were stained with a 1:100 dilution of antibodies specific for CDC42 (10155-1-AP, PROTEINTECH™), and phalloidin (Molecular Probes) imaged. Untreated, LPS alone and LPS plus inhibitors treatments were repeated on two different derivations of primary mesangial cells with qualitatively consistent results.
# [2] = tested on: integrin α1-null mesangial cells; experiment: Boyden chamber (Transwell) cell migration assay, integrin α1-null mesangial cells; format: cell-based, mouse; details: relative to 10% FCS
# Procedure: MES Migration (insert). Transwell cell migration assays were performed as described by Daniel et al. (Daniel et al., 2012, Lab Invest; 92(6): 812-26) with some modifications. 8 micron, 24-well plate control inserts (BD Bioscience, Bedford, Mass.) were coated overnight at 4° C. with 100 μl of 0.1% gelatin/PBS then washed 1× with PBS. MES cultures were incubated in 1% FCS overnight, then 0.05% BSA-containing media for at least 8 hours, washed 1× with PBS and carefully tryspinized to ensure a single cell suspension and limited “clumping” of cells. After serum-neutralization and subsequent centrifugation, ˜100,000 cells were resuspended in 1.5 mls of 0.05% BSA media containing activators/inhibitors. The wells of a 24-well plate were filled with 0.75 mls of 10% FCS-containing media plus activators/inhibitors (excluding 0.05% BSA control well). 0.5 ml of cell-suspension was loaded into the gelatin-coated insert and the insert placed in a well. Wells were visually inspected for bubbles beneath insert and equal distribution of cell-suspension. Cells were allowed to migrate overnight (˜18 hrs). […] Inserts were air dried and counted at 100× magnification. Five fields were counted on each insert including one center and four periphery areas. Data was expressed as relative to 10% FCS control well (set equal to one).
# [3] = tested on: primary cultured mesangial cells; experiment: Boyden chamber (Transwell) cell migration assay, wild type mesangial cells; format: cell-based, mouse; details: relative to 10% FCS, p<0.05
# Procedure: MES Migration (insert). Transwell cell migration assays were performed as described by Daniel et al. (Daniel et al., 2012, Lab Invest; 92(6): 812-26) with some modifications. 8 micron, 24-well plate control inserts (BD Bioscience, Bedford, Mass.) were coated overnight at 4° C. with 100 μl of 0.1% gelatin/PBS then washed 1× with PBS. MES cultures were incubated in 1% FCS overnight, then 0.05% BSA-containing media for at least 8 hours, washed 1× with PBS and carefully tryspinized to ensure a single cell suspension and limited “clumping” of cells. After serum-neutralization and subsequent centrifugation, ˜100,000 cells were resuspended in 1.5 mls of 0.05% BSA media containing activators/inhibitors. The wells of a 24-well plate were filled with 0.75 mls of 10% FCS-containing media plus activators/inhibitors (excluding 0.05% BSA control well). 0.5 ml of cell-suspension was loaded into the gelatin-coated insert and the insert placed in a well. Wells were visually inspected for bubbles beneath insert and equal distribution of cell-suspension. Cells were allowed to migrate overnight (˜18 hrs). Using a moistened cotton swab, non-migrated cells were liberated from the apical-side of the insert by gentle but firm rubbing. A second swab repeated the removal and was followed by a single wash with PBS. Inserts were fixed, stained and washed (2×) in companion 24 well plate(s) containing 0.5 mls MEOH, 0.5 mls 1% Toluidine Blue in 1% Borax and 0.5 mls distilled H2O, respectively. Inserts were air dried and counted at 100× magnification. Five fields were counted on each insert including one center and four periphery areas. Data was expressed as relative to 10% FCS control well (set equal to one).
# [4] = tested on: Alport mice on the 129 Sv background; experiment: Treatment of Alport mice with Rac1 inhibitor; format: in vivo, mouse; details: injected once daily from 2 weeks to 6 weeks of age; relative to saline
# Procedure: FIG. 9. Treatment of Alport mice with Rac1 inhibitors partially ameliorates mesangial cell process invasion of the glomerular capillary tufts. […] Kidney cryosections were analyzed by dual immunofluorescence immunostaining using antibodies against either laminin α2 (B and E) or integrin α8 (A and D). […] represent a merging of results from staining with laminin α2 and integrin α8. The degree of mesangial process invasion of the glomerular capillary tufts was ameliorated in the Rac1 inhibitor-treated mice relative to mice injected with saline.
# To examine the effect of Rac1 inhibitors on Alport glomerular disease progression, either wild type or Alport mice were treated with inhibitors by IP injection from 2 weeks to 6 weeks of age. Glomeruli were examined for mesangial process invasion of the capillary tufts by dual immunofluorescence microscopy using antibodies specific for either integrin α8 or the GBM marker laminin α5. […] Combined, the data in FIG. 7, FIG. 8, and FIG. 9 confirm that mesangial process invasion of the glomerular capillaries is a Rac1-dependent process, and that Rac1 activation is attenuated by integrin α1 deletion both in vitro and in vivo.
# Immunofluorescence microscopy. Fresh frozen kidneys were sectioned at 8 μm and acetone fixed. […]
structure (smiles),measurement,setting,value
CCN(CC)CCCC(C)Nc1nc(C)cc(Nc2ccc3nc(C)cc(N)c3c2)n1 (stereo not shown) [NSC 23766],LPS-induced morphological change (filopodia / actin spikes) in presence of inhibitor,[1],could not be distinguished in blinded experiments form untreated wild type mesangial cells
same,Integrin α1-null mesangial cell migration,[2],unaffected
same,Migration of wild type mesangial cells,[3],significantly reduced
same,Degree of mesangial process invasion of the glomerular capillary tufts,[4],ameliorated
